Where “and” joins values, the source holds several entries; their conditions need not be identical. Identical values can stand only once. Like-named read-outs stand apart in the source and are kept apart here.
Assays:
[1] = tested on: C. parvum (University of Arizona Iowa isolate); type: in vivo, C57BL/6 IFN-γ−/− mice
Method: Interferon gamma (IFN-γ) knockout mice were used to model acute Cryptosporidium infection. All IFN-γ knockout mouse studies were performed in compliance with animal care guidelines and were approved by the Explora BioLabs (San Diego, CA) Institutional Animal Care and Use Committee. Four-week-old female C57BL/6 IFN-γ^−/− mice with normal flora were purchased from The Jackson laboratory and acclimated for 3 days prior to infection by oral gavage with ∼10^6 C. parvum Iowa isolate oocysts (Sterling Laboratory, University of Arizona) suspended in sterile distilled water. At the indicated times following infection, mice were treated with compound vehicle alone, clofazimine (positive control), or once daily AN7973 at the indicated doses. Fecal parasite shedding was measured by isolating oocysts using sucrose gradient centrifugation. Sheather’s sucrose solution was freshly prepared by dissolving 156.25 g sucrose and 2.5 mL phenol in 100 mL water. Two sucrose solutions were prepared: (A) specific gravity of 1.103 (33% Sheather’s and 0.1% Tween 80 in PBS) and (B) specific gravity of 1.064 (20% Sheather’s and 0.1% Tween 80 in PBS). In a 2 mL microfuge tube, a gradient was prepared by laying 0.75 mL of solution A, then carefully laying 0.75 mL of solution B, slowly as to prevent mixing of the two layers. Fecal pellets were removed from storage, and homogenized by vortexing and pipetting. 0.2 mL fecal homogenate was overlaid on top of gradient in each microfuge tube. Oocysts were floated from feces by centrifugation at 1000 × g for 20 min and collected with a pipet tip from the 1.064/1.103 specific gravity interface between solutions A and B. Oocysts were rinsed once in cold PBS, pelleted by centrifugation at 15,000 × g for 10 min, and resuspended in PBS. Isolated oocysts were then stained with a fluorescein isothiocyanate-conjugated mouse anti-Cryptosporidium antibody (Bio-Rad catalog# 2402-3007 F; 0.25 µg per sample) and quantified using a Guava EasyCyte flow cytometer and CytoSoft data acquisition software (version 5.3; Guava Technologies, Inc.). Oocysts per milliliter of sample were normalized to counts per milligram of feces.

[2] = tested on: C. parvum (Bunch Grass Farms Iowa isolate); set-up: method as in PMID 29339392; details: cited from earlier work

CC(C)/N=c1\cc2n(-c3ccc(Cl)cc3)c3ccccc3nc-2cc1Nc1ccc(Cl)cc1 [Clofazimine, clofazimine, reference compound]
fecal oocyst shedding, individual mice ([1]; 10 mg/kg QD from day 4, day p.i. 14): 15 (2×) and 18 and 16
fecal oocyst shedding, individual mice ([1]; 25 mg/kg QD from day 4, day p.i. 8): 10 and 8 (2×) and 9
efficacy against Cryptosporidium in the NSG mouse [2]: lacks efficacy

Reference: publication PMC6597546, “Identification of a potent benzoxaborole drug candidate for treating cryptosporidiosis” (Nature Communications, 2019)
